Biological target: T1, Tyrosine-protein phosphatase non-receptor type 22 (Homo sapiens, UniProt Q9Y2R2)
T1 sequence (Q9Y2R2 whole entry): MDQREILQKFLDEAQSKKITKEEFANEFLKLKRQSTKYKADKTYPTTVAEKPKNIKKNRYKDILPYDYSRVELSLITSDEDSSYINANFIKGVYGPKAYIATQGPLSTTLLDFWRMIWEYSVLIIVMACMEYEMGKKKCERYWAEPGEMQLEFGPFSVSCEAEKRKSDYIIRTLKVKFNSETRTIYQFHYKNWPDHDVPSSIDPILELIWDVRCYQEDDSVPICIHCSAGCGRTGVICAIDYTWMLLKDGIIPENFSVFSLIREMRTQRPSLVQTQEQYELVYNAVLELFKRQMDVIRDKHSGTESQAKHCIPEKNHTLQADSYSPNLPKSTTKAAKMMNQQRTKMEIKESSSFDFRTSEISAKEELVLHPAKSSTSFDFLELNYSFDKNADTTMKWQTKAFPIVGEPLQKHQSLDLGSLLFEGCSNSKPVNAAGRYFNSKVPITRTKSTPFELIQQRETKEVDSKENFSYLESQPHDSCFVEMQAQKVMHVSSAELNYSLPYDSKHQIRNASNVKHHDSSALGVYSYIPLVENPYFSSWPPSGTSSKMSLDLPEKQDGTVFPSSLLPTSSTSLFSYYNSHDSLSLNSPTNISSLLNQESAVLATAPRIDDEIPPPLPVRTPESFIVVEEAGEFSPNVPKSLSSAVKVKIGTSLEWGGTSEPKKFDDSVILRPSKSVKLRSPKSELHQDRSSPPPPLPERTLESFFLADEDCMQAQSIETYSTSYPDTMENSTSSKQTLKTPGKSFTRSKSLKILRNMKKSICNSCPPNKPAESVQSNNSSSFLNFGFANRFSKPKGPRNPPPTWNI
Assay: concentration-dependent PTPN22 LYP inhibition – biochemical, pCAP substrate, fluorescence intensity, dose response (AID 435027)

| IC50 | Structure (SMILES) |
| --- | --- |
| > 79.4 µM | O=C1C([N+](=O)[O-])=CC(Br)=CC1/C=N/n1cnnc1 (stereo not given) [MLS000714804] |
| > 79.4 µM | Cc1ccc(NN=C2C(=O)N(CN3CCOCC3)c3ccccc32)cc1 [(3Z)-3-[(4-methylphenyl)hydrazinylidene]-1-(4-morpholinylmethyl)-2-indolone] |
| 15.7 µM | COC1=CC=CC(/C=N/NC(=O)c2cc3cc([N+](=O)[O-])ccc3s2)C1=O (stereo not given) [SMR000237814] |
| > 79.4 µM | CCOC(=O)NC(=O)C(C=Nc1ccc(C)cc1)C(=O)NC(=O)OCC [ethyl 2-{[(ethoxycarbonyl)amino]carbonyl}-3-(4-toluidino)acryloylcarbamate] |
| 7.65 µM | N=C(NN=Cc1ccc2c(c1)OCO2)Sc1cc(O)n(-c2ccc(C(=O)O)cc2)c1O [4-(3-{[[(2E)-2-(1,3-benzodioxol-5-ylmethylene)hydrazino](imino)methyl]thio}-2,5-dioxopyrrolidin-1-yl)benzoic acid] |

From BindingDB's records for doi:10.7270/Q24748BK (Burnham Center For Chemical Genomics, 2010)
